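The compound was tested at five concentrations on cells cultured in 96-well plates, with a 48-hour exposure period. TGI denotes the concentration required for complete inhibition of growth.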
Tests used:
Experiment in all cases: inhibition of tumour cell growth, NCI panel, 48 h
[1] = system: A549 NSCLC
[2] = system: HCT-15 colon
[3] = system: LOX IMVI melanoma
[4] = system: MCF7 breast
[5] = system: ACHN renal
[6] = system: HCC-2998 colon
[7] = system: T-47D breast
[8] = system: UACC-62 melanoma
[9] = system: OVCAR-5 ovarian
[10] = system: SK-OV-3 ovarian
[11] = system: RXF 393 renal
[12] = system: UO-31 renal
[13] = system: UACC-257 melanoma
[14] = system: HS 578T breast
[15] = system: EKVX NSCLC
[16] = system: NCI-H23 lung
[17] = system: RPMI-8226 leukemia
[18] = system: NCI/ADR-RES ovarian
[19] = system: CAKI-1 renal
[20] = system: SNB-19 CNS
[21] = system: SF-539 CNS
[22] = system: HOP-62 NSCLC
[23] = system: SW-620 colon
[24] = system: SN12C renal
[25] = system: NCI-H460 lung
[26] = system: K-562 leukemia
[27] = system: PC-3 prostate
[28] = system: OVCAR-3 ovarian
[29] = system: SK-MEL-5 melanoma
[30] = system: CCRF-CEM leukemia
[31] = system: DU-145 prostate
[32] = system: 786-0 renal
[33] = system: IGROV1 ovarian
[34] = system: SK-MEL-28 melanoma
[35] = system: SF-295 CNS
[36] = system: SNB-75 CNS
[37] = system: NCI-H226 lung
[38] = system: MOLT-4 leukemia
[39] = system: OVCAR-4 ovarian
[40] = system: NCI-H522 lung
[41] = system: SR leukemia
[42] = system: U251 CNS
[43] = system: HT29 colon
[44] = system: MDA-MB-435
[45] = system: MDA-N
[46] = system: TK-10 renal
[47] = system: SK-MEL-2 melanoma
[48] = system: MDA-MB-231 breast
[49] = system: SF-268 CNS
[50] = system: COLO 205 colon
[51] = system: HCT-116 colon
[52] = system: OVCAR-8 ovarian
[53] = system: HOP-92 NSCLC
[54] = system: BT-549 breast
[55] = system: A498 renal
[56] = system: M14 melanoma
[57] = system: KM12 colon
[58] = system: MALME-3M melanoma

COC(=O)C1Cc2c([nH]c3ccccc23)-c2[nH]c3ccccc3c2CC(NC(C)=O)C(=O)N2CCCC2C(=O)N1 (stereo unspecified)
TGI [1]: > 100 µM | TGI [2]: > 100 µM | TGI [3]: > 100 µM | TGI [4]: > 100 µM | TGI [5]: > 100 µM | TGI [6]: > 100 µM | TGI [7]: > 100 µM | TGI [8]: > 100 µM | TGI [9]: > 100 µM | TGI [10]: > 100 µM | TGI [11]: > 100 µM | TGI [12]: > 100 µM | TGI [13]: > 100 µM | TGI [14]: > 100 µM | TGI [15]: > 100 µM | TGI [16]: > 100 µM | TGI [17]: > 100 µM | TGI [18]: > 100 µM | TGI [19]: > 100 µM | TGI [20]: > 100 µM | TGI [21]: > 100 µM | TGI [22]: > 100 µM | TGI [23]: > 100 µM | TGI [24]: > 100 µM | TGI [25]: > 100 µM | TGI [26]: > 100 µM | TGI [27]: > 100 µM | TGI [28]: > 100 µM | TGI [29]: > 100 µM | TGI [30]: > 100 µM | TGI [31]: > 100 µM | TGI [32]: > 100 µM | TGI [33]: > 100 µM | TGI [34]: > 100 µM | TGI [35]: > 100 µM | TGI [36]: > 100 µM | TGI [37]: 18.3 µM | TGI [38]: > 100 µM | TGI [39]: > 100 µM | TGI [40]: > 100 µM | TGI [41]: > 100 µM | TGI [42]: > 100 µM | TGI [43]: > 100 µM | TGI [44]: > 100 µM | TGI [45]: > 100 µM | TGI [46]: > 100 µM | TGI [47]: > 100 µM | TGI [48]: > 100 µM | TGI [49]: > 100 µM | TGI [50]: > 100 µM | TGI [51]: > 100 µM | TGI [52]: > 100 µM

CN1C(=O)[C@@H]2[C@@H]3c4ccccc4N[C@@H]3c3[nH]c4ccccc4c3[C@@H]2C1=O
TGI [1]: 65.1 µM | TGI [2]: 50.1 µM | TGI [3]: 46.6 µM | TGI [4]: > 100 µM | TGI [5]: 49.9 µM | TGI [53]: 59.7 µM | TGI [6]: 40.3 µM | TGI [8]: 32.4 µM | TGI [9]: 64.2 µM | TGI [10]: 66.7 µM | TGI [11]: 64.4 µM | TGI [12]: 43.9 µM | TGI [13]: 48.9 µM | TGI [14]: 76.5 µM | TGI [15]: > 100 µM | TGI [16]: 28.6 µM | TGI [17]: 47 µM | TGI [54]: 53.6 µM | TGI [18]: 52 µM | TGI [19]: > 100 µM | TGI [20]: > 100 µM | TGI [21]: 39.3 µM | TGI [22]: 43.5 µM | TGI [23]: > 100 µM | TGI [24]: > 100 µM | TGI [25]: 31.4 µM | TGI [26]: 74.7 µM | TGI [27]: 50.5 µM | TGI [28]: 40 µM | TGI [29]: 25 µM | TGI [30]: 46.5 µM | TGI [31]: > 100 µM | TGI [33]: 26.9 µM | TGI [34]: 67.9 µM | TGI [35]: 47 µM | TGI [36]: 85.8 µM | TGI [37]: > 100 µM | TGI [38]: 55.6 µM | TGI [39]: 54.3 µM | TGI [41]: 59.3 µM | TGI [42]: 66.3 µM | TGI [43]: > 100 µM | TGI [44]: 64.7 µM | TGI [45]: > 100 µM | TGI [46]: 77.6 µM | TGI [47]: 33.1 µM | TGI [55]: 65.3 µM | TGI [48]: 63.2 µM | TGI [49]: 92.6 µM | TGI [50]: 36.5 µM | TGI [51]: 74.9 µM | TGI [52]: 63.1 µM

CC(C)(/C=N/O)/[N+]([O-])=C/c1ccccc1
TGI [1]: > 100 µM | TGI [2]: > 100 µM | TGI [3]: > 100 µM | TGI [4]: > 100 µM | TGI [5]: > 100 µM | TGI [53]: > 100 µM | TGI [6]: > 100 µM | TGI [7]: > 100 µM | TGI [8]: > 100 µM | TGI [9]: > 100 µM | TGI [10]: > 100 µM | TGI [11]: > 100 µM | TGI [12]: > 100 µM | TGI [13]: > 100 µM | TGI [14]: > 100 µM | TGI [15]: > 100 µM | TGI [16]: > 100 µM | TGI [17]: > 100 µM | TGI [18]: > 100 µM | TGI [19]: > 100 µM | TGI [56]: > 100 µM | TGI [20]: > 100 µM | TGI [57]: > 100 µM | TGI [21]: > 100 µM | TGI [22]: > 100 µM | TGI [23]: > 100 µM | TGI [24]: > 100 µM | TGI [25]: > 100 µM | TGI [27]: > 100 µM | TGI [28]: > 100 µM | TGI [29]: > 100 µM | TGI [31]: > 100 µM | TGI [32]: > 100 µM | TGI [33]: > 100 µM | TGI [34]: > 100 µM | TGI [35]: > 100 µM | TGI [36]: > 100 µM | TGI [37]: > 100 µM | TGI [38]: > 100 µM | TGI [39]: > 100 µM | TGI [42]: > 100 µM | TGI [43]: > 100 µM | TGI [58]: > 100 µM | TGI [44]: > 100 µM | TGI [45]: > 100 µM | TGI [46]: > 100 µM | TGI [47]: > 100 µM | TGI [48]: > 100 µM | TGI [49]: > 100 µM | TGI [50]: > 100 µM | TGI [51]: > 100 µM | TGI [52]: > 100 µM

C=C(C)[C@@H]1CCC2=C(CC[C@]3(C)[C@@H]([C@@H](CCC=C(C)C)C(=O)O)[C@H](O)C[C@@]23C)[C@@]1(C)CCC(=O)O
TGI [1]: > 100 µM | TGI [2]: > 100 µM | TGI [3]: > 100 µM | TGI [5]: > 100 µM | TGI [53]: > 100 µM | TGI [7]: > 100 µM | TGI [9]: > 100 µM | TGI [10]: > 100 µM | TGI [11]: > 100 µM | TGI [12]: > 100 µM | TGI [13]: > 100 µM | TGI [14]: > 100 µM | TGI [15]: > 100 µM | TGI [16]: > 100 µM | TGI [17]: > 100 µM | TGI [54]: > 100 µM | TGI [18]: > 100 µM | TGI [19]: > 100 µM | TGI [56]: > 100 µM | TGI [20]: > 100 µM | TGI [57]: > 100 µM | TGI [21]: > 100 µM | TGI [22]: > 100 µM | TGI [23]: > 100 µM | TGI [24]: > 100 µM | TGI [25]: > 100 µM | TGI [26]: > 100 µM | TGI [27]: > 100 µM | TGI [28]: > 100 µM | TGI [29]: > 100 µM | TGI [30]: > 100 µM | TGI [31]: > 100 µM | TGI [32]: > 100 µM | TGI [33]: > 100 µM | TGI [34]: > 100 µM | TGI [35]: > 100 µM | TGI [36]: > 100 µM | TGI [37]: > 100 µM | TGI [38]: > 100 µM | TGI [39]: > 100 µM | TGI [40]: > 100 µM | TGI [41]: > 100 µM | TGI [42]: > 100 µM | TGI [43]: > 100 µM | TGI [58]: > 100 µM | TGI [44]: > 100 µM | TGI [45]: > 100 µM | TGI [46]: > 100 µM | TGI [47]: > 100 µM | TGI [55]: > 100 µM | TGI [48]: > 100 µM | TGI [49]: > 100 µM | TGI [50]: > 100 µM | TGI [51]: > 100 µM | TGI [52]: > 100 µM
